Measurements as given in ChEMBL document CHEMBL1143211, “Inhibitors of proteases and amide hydrolases that employ an alpha-ketoheterocycle as a key enabling functionality” (Bioorg Med Chem, 2008).
Values after ≈ are worked out from the molar mass of the structure shown. One block for each compound: values may come before it.

Key:
Trypanosoma cruzi = experiment: microbe, parasite or virus in culture; conditions: read-out: ED50
[1] = test system: Trypanosoma brucei rhodesiense; experiment: microbe, parasite or virus in culture; conditions: read-out: ED50
Mus musculus = experiment: Analgesic activity in iv dosed mouse; format: functional
[2] = molecular target: T1, Trifunctional purine biosynthetic protein adenosine-3 (Homo sapiens, UniProt P22102); experiment: Inhibition of human glycinamide ribonucleotide transformylase
T1 sequence (P22102 whole entry): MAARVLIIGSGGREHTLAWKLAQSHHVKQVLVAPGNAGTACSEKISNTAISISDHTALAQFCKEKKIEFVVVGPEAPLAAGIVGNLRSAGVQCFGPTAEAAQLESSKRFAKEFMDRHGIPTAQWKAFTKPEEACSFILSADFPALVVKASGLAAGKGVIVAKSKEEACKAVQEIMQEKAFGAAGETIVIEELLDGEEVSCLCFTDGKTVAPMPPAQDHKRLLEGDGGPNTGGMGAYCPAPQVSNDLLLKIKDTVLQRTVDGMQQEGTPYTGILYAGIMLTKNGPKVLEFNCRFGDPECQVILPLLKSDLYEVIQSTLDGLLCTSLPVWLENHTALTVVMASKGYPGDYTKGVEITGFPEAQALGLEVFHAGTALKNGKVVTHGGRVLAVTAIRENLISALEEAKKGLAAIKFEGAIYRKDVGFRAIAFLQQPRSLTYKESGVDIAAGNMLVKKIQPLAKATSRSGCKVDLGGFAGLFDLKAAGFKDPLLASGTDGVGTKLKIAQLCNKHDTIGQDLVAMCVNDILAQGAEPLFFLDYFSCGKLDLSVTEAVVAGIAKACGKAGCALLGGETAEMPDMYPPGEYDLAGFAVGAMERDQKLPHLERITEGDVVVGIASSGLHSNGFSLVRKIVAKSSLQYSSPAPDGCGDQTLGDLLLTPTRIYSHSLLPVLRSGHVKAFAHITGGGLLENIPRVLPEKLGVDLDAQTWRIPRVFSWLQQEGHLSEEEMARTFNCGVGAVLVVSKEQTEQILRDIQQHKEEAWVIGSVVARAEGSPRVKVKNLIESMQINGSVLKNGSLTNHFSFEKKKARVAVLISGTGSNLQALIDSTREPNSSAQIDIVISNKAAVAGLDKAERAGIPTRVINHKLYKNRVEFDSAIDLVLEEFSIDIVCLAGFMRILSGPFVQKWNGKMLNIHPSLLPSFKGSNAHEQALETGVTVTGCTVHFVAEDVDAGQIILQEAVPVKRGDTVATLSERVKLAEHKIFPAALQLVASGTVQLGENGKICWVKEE

[3] = molecular target: Bifunctional purine biosynthesis protein ATIC (Homo sapiens, UniProt P31939); experiment: Inhibition of human aminoimidazole carboxamide transformylase
Bifunctional purine biosynthesis protein ATIC, sequence (P31939 whole entry): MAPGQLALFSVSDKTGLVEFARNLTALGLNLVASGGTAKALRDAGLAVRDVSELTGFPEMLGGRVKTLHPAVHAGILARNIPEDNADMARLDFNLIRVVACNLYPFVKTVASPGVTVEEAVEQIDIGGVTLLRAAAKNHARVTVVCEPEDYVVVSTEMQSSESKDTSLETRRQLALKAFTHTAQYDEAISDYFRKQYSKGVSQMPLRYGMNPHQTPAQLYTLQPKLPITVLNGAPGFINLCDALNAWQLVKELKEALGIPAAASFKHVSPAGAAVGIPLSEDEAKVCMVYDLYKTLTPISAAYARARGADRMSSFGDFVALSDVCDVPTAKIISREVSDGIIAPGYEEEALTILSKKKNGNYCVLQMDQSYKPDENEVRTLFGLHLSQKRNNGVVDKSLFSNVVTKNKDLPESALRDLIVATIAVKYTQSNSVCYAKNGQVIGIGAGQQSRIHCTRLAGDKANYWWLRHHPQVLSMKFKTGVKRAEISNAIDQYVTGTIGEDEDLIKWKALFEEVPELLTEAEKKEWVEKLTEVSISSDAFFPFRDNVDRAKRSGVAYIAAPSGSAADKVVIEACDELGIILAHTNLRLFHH

[4] = Inhibition of Escherichia coli glycinamide ribonucleotide transformylase
[5] = Inhibition of Porphyromonas gingivalis arginine gingipain
[6] = Selectivity for Porphyromonas gingivalis arginine gingipain over trypsin
[7] = Selectivity for Porphyromonas gingivalis arginine gingipain over cathepsin B

- EC50 (Trypanosoma cruzi): 6700 µg/mL (≈ 14.1 mM)
- EC50 [1]: 2200 µg/mL (≈ 4.65 mM)
SMILES: O=C(c1cc(-c2ccccc2)on1)[C@@H]1CCCN1C(=O)[C@@H]1CCCN1C(=O)OCc1ccccc1

SMILES: O=C(CCCCCCc1ccccc1)c1ncc(-c2ccccn2)o1
- ED50 (Mus musculus): 1.9 mg/kg

- Ki [2]: > 100 µM
- Ki [3]: > 100 µM
SMILES: Nc1nc(N)c(CCCCCC(=O)c2nc3ccccc3o2)c(=O)[nH]1
- Ki [4]: 15 µM

SMILES: NCCCC[C@H](NC(=O)C1CCCN(C(=O)CCc2ccccc2)C1)C(=O)c1nc2ccccc2s1 (some centres undefined)
- Ki [5]: 0.0009 µM
- Selectivity ratio [6]: 30
- Selectivity ratio [7]: 120000
